Activity calls are given as the source filed them. No rule for the calls is given here.
Each molecule was assayed on CHOP reporter cell assay, percent of control (assay: CHOP reporter inhibitor potency, dose response, cell-based (AID 504322);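 also: CHO cells carrying a CHOP reporter stimulated with tunicamycin to induce ER stress; potency is for inhibition of the stress-induced reporter signal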).

SMILES	IC50
CCOC(=O)c1c(C)[nH]c(C(=O)COC(=O)c2[nH]c(C)c(C(C)=O)c2C)c1C	> 10 µM (inactive)
COc1ccc(NC(=O)/C(Cl)=C(/Cl)S(=O)(=O)Cc2ccc(C)cc2)cn1	> 10 µM (inactive)
CCOc1cccc(C(=O)Nc2cccc(-c3nnc(-c4ccc(C)cc4)o3)c2)c1	2.62 µM
CC(=O)C(C(C)=O)c1c(Cl)c(O)c(O)c2c(C(=O)c3ccccc3)coc12	5.67 µM (inactive)
Cc1cccc(N2CCN(C(=O)c3c(C)nn(Cc4ccccc4Cl)c3C)CC2)c1C	9.26 µM (inactive)
Cc1ccc(C(=O)N/C(=C\c2ccc(Br)cc2)c2nc(=S)[nH][nH]2)cc1	9.7 µM (inactive)
COc1ccccc1-c1cc(C(F)(F)F)nc(S(=O)(=O)CCCC(=O)Nc2cccnc2Cl)n1	> 10 µM (inactive)
S=C(NCCc1ccc(Cl)cc1)Nc1ccc(Cl)cc1Cl	9.93 µM (inactive)
Oc1ccc(Br)cc1-c1nc2cnccn2c1NC1CCCCC1	> 10 µM (inactive)
C=CCN1C(=O)/C(=C/c2ccc(OC(C)=O)c(OCC)c2[N+](=O)[O-])SC1=S	5.3 µM (inactive)
CC(CNC(=S)Nc1cc(F)cc(F)c1)CSc1ccc(Cl)cc1 (stereo not drawn)	> 10 µM (inactive)
CCOC(=O)N1CCC(n2c(=S)[nH]c3cc(OCC)c(OCC)cc3c2=O)CC1	4.35 µM (inactive)
Cc1nn(CCC#N)c2nc(-c3ccccc3)cc(C(F)(F)F)c12	4 µM (inactive)
CCc1ccc2[nH]c(=O)c(C(c3nnnn3Cc3ccco3)N3CCC(C)CC3)cc2c1 (stereo not drawn)	4.96 µM
CC(C)(C)c1ccc(C2CC2C(=O)N/N=C\c2ccc[nH]2)cc1 (stereo not drawn)	4.18 µM (inactive)
OC(CNCC(c1ccc(Cl)cc1Cl)c1c[nH]c2ccccc12)c1ccccc1 (stereo not drawn)	1.79 µM
Cc1ccc(-c2nc3cc(NS(=O)(=O)c4ccc(C)cc4)ccc3o2)cc1	5.63 µM (inactive)
Cc1ccc(C2=NN(C(=O)c3cccs3)C(c3ccccc3O)C2)cc1 (stereo not drawn)	9.38 µM (inactive)
CC(C)c1ccc2c(c1)C1(NN=C(c3ccccc3)S1)C(=O)N2 (stereo not drawn)	> 10 µM (inactive)
O=C(c1ccc2c3c(cccc13)C(=O)N(O)C2=O)N1CCCCC1	1.92 µM
O=C(N/N=C/c1ccc(F)cc1)c1c(O)c2ccccc2[nH]c1=O	> 10 µM (inactive)
Cc1cccc(C(=O)c2cnc3ccccc3c2-c2ccccc2)c1	> 10 µM (inactive)
CC(C)(C)c1nnc(N/N=C/c2cc(Br)ccc2O)n(N)c1=O	5.11 µM (inactive)
COc1ccc(NC(=O)/C(Cl)=C(/Cl)S(=O)Cc2ccc(Cl)cc2)cn1 (stereo not drawn)	1.99 µM
CCOc1cc(/C=C2/C(=O)ON=C2C)ccc1OCc1ccc(F)cc1	9.5 µM (inactive)

SMILES	IC50
Cc1cccnc1NC(=O)c1c(O)c2ccccc2n(C)c1=O	> 10 µM (inactive)
O=C(N/N=C/c1cccs1)c1cccc(NC(=O)c2ccc(Cl)cc2)c1	4.15 µM
COc1ccc(CCNC(=O)c2nnn(-c3ccc4c(c3)OCCO4)c2N)cc1OC	0.69 µM
O=C(OCn1ncc(Br)c(Br)c1=O)c1ccccc1Cl	2.84 µM
COc1ccc(C(CCNCc2ccc(F)cc2)c2ccc(F)cc2)cc1 (stereo not drawn)	9.74 µM (inactive)
CCOC(=O)c1cnc(-n2nc(C)cc2C)nc1Nc1ccc(O)cc1	1.51 µM
O=C(Cc1ccccc1)Nc1cccc(N2C(=O)C=CC2=O)c1	9.71 µM (inactive)
Cc1cccc(/C=C/C(=O)c2cc(Br)ccc(=O)c2O)c1	8.57 µM (inactive)
CC(C)(C)c1ccc(-c2noc(CCC(N)=O)n2)cc1	< 0.16 µM
C=C(C)Cn1c(N2CCC(Cc3ccccc3)CC2)nc2c1c(=O)[nH]c(=O)n2C	8 µM (inactive)
N=c1n(Cc2ccccc2)c2ccccc2n1CC(O)COc1ccc(Cl)cc1Cl (stereo not drawn)	6.92 µM (inactive)
O=C(Nc1cccc(Cl)c1)Nc1ccnc(-c2cccnc2)n1	> 10 µM (inactive)
Cc1ccc2c(C)nc(Nc3nc(CSc4nc5ccccc5[nH]4)cc(=O)[nH]3)nc2c1	3.8 µM (inactive)
Cc1ccc(-c2nc(-c3ccccn3)no2)cc1	4.47 µM
Cc1cc(Cl)ccc1OCc1n[nH]c(=S)n1C1CCCCC1	> 10 µM (inactive)
CS(=O)(=O)c1nc(-c2cccs2)cc(C(F)(F)F)n1	< 0.16 µM
COc1ccc(-c2[nH]ncc2N=Nc2cc(C)cc(C)c2)cc1	9.27 µM (inactive)
FC(F)(F)c1cccc(Sc2nc(-c3ccccc3)nnc2C(F)(F)F)c1	9.58 µM (inactive)
OC(COCC(F)(F)C(F)(F)C(F)(F)C(F)F)Cn1c2ccccc2c2ccccc21 (stereo not drawn)	2.39 µM
Cc1cc(C)c2c(c1)/C(=N/NS(=O)(=O)c1ccc(Br)cc1)CCC2	9.49 µM (inactive)
O=C(Nc1cccc(Cl)c1Cl)c1cc(S(=O)(=O)NCCc2ccccc2)ccc1F	9.57 µM (inactive)
CCOC(=O)C1=C(O)/C(=C/c2ccc(CNC(=O)C(=O)Nc3ccc(C)cc3)o2)N=C1C	> 10 µM (inactive)
C#CC(=O)N(c1ccc(OC)c(OC)c1)C(C(=O)NC1CCCC1)c1cccs1 (stereo not drawn)	5.28 µM (inactive)
CSc1nc(-c2ccccc2)nc(C(Cl)Cl)n1	5.1 µM
CCCNC(=O)c1nnsc1S(=O)c1ccc(Cl)cc1 (stereo not drawn)	5.55 µM (inactive)

SMILES	IC50
O=[N+]([O-])c1c(NCCCO)cc(Sc2nc3ccccc3s2)c2nonc12	> 10 µM (inactive)
CCCCCn1c(SCCC(C)C)nc2c1c(=O)[nH]c(=O)n2C	6.85 µM (inactive)
C=C(C)COc1ccc(-c2n[nH]c(C)c2-c2ccccc2OC)c(O)c1	> 10 µM (inactive)
Cc1nc(COC(=O)c2cc(O)c3ccccc3c2O)cs1	> 10 µM (inactive)
COc1ccc(CC(=O)Nc2cccc(-c3nnc(-c4cccc(C)c4)o3)c2)cc1OC	5.17 µM (inactive)
COc1cc(C(=O)OC(C)C(=O)NCC2CCCCC2)cc(NC(=O)c2ccco2)c1OC (stereo not drawn)	> 10 µM (inactive)
O=C(Nc1ccccc1NC(=O)NC1CCCCC1)NC1CCCCC1	8.46 µM (inactive)
CC1CCN(C(=O)/C(=C/c2ccccc2Cl)c2ccccc2)CC1	3.83 µM (inactive)
Nc1c(C(=O)Nc2nc3ccccc3s2)sc2nc(-c3cccs3)ccc12	7.44 µM (inactive)
Nc1ccc2c(c1)C(=O)C(=O)c1ccccc1-2	5.08 µM (inactive)
CCc1ccc(/C=c2\s/c(=C\C(=O)C(C)(C)C)[nH]c2=O)cc1	9.29 µM (inactive)
CCOc1cc(C)c(-c2onc(C(F)(F)F)c2-c2csc(C)n2)c(O)c1	> 10 µM (inactive)
O=C1C(=C2SCCCS2)CC/C1=C\c1ccc(F)cc1	4.38 µM (inactive)
CCOc1cccc(CNc2ccc(O)cc2)c1OCc1ccc(Cl)cc1Cl	4.58 µM
C=C(C)COc1ccc(-c2[nH]ncc2Oc2ccccc2OCC)c(O)c1	1.94 µM
Cc1cc(C(=O)N/N=C/c2ccc(-c3cccc(Cl)c3Cl)o2)n[nH]1	5.27 µM (inactive)
Cc1nc(NC(=O)CSc2nc3cccnc3n2Cc2ccccc2)sc1C	> 10 µM (inactive)
CCCCCCN1C=CC(=C2C(=O)c3ccccc3C2=O)C=C1	6.36 µM (inactive)
CC1=C(CO)C(=O)OC([C@@H](C)C2CC[C@H]3C4C[C@H]5O[C@]56[C@@H](O)C=CC(=O)[C@]6(C)C4CC[C@]23C)C1 (stereo partly drawn)	> 10 µM (inactive)
COc1cccc(NC(=O)CSc2nnc(-c3cc(C)n(-c4ccccc4)c3C)o2)c1	1.76 µM (inactive)
Cc1cc(C(=O)COC(=O)c2ccccc2O)c(C)n1Cc1cccs1	< 0.16 µM (inactive)
CCc1c(C)sc(NC(=O)CSc2nc3c(c(C(F)(F)F)n2)CCc2ccccc2-3)c1C#N	9.75 µM (inactive)
CC(C)(C)c1ccc(S(=O)(=O)NCC(=O)Nc2sc3c(c2C(N)=O)CCCC3)cc1	9.83 µM (inactive)
N#CC1=C(N)N2C(=C(C#N)C1c1ccc(Br)cc1)Nc1ccccc12 (stereo not drawn)	> 10 µM (inactive)
CCc1ccc(OCC(=O)NC(NC(=S)Nc2ccccc2)C(Cl)(Cl)Cl)cc1 (stereo not drawn)	8.12 µM (inactive)

SMILES	IC50
CC(C)c1ccc(-c2cc(C(=O)N3N=C(C(F)F)CC3(O)C(F)F)c3ccccc3n2)cc1 (stereo not drawn)	8.38 µM (inactive)
Cc1ccc(-c2nc(N)sc2-c2ccc(C)cc2)cc1	9.83 µM (inactive)
CN1CCN(c2ccc(-c3ccc4ccccc4n3)cc2)CC1	< 0.16 µM (inactive)
Oc1[nH]c2ccccc2c1N=NC(=S)NCCc1ccccc1	9.82 µM (inactive)
O=C1C=CC(=O)N1N(c1ccccc1)c1ccccc1	> 10 µM (inactive)
O=C1C(Cl)=C(N2CCCCC2)C(=O)C(Cl)=C1c1cnc(N2CCCCC2)s1	9.7 µM (inactive)
CCCCCCn1c(=O)c(C(=O)N/N=C/c2cccc(F)c2)c(O)c2ccccc21	7.03 µM (inactive)
CCCOC(=O)c1ccc(Oc2cn[nH]c2-c2ccc(OC)cc2O)cc1	9.32 µM (inactive)
CC1CCN(c2nc3ccc(C(=O)O)cc3s2)CC1	0.71 µM
CC(C)Oc1cc(NC(=O)CS(=O)CC(=O)Nc2cccc(C(F)(F)F)c2)c(Cl)cc1Cl (stereo not drawn)	7.99 µM (inactive)
Cc1ccc2c(c1)c1c(n2CC(O)Cn2c(C)nc3ccccc32)CCCC1 (stereo not drawn)	6.68 µM (inactive)
O=C1C(N2CCOCC2)=C(n2nnc3ccccc32)C(=O)c2ccccc21	9.64 µM (inactive)
O=C1C=CC(=O)N1CCCCCCN1C(=O)C=CC1=O	4.94 µM
COc1ccc(C(=O)NNC(=O)c2ccccn2)cc1	3.12 µM (inactive)
O=C(Nc1ccc(Cl)cc1)Nc1ccc(N2CCCC2)c(S(=O)(=O)Nc2ccccc2Cl)c1	5.95 µM (inactive)
CCCCc1nc2ccccc2c(=O)n1NC(=O)c1c(O)c2ccccc2n(C)c1=O	> 10 µM (inactive)
CCN=C1NN=C(c2cc(C)n(Cc3ccco3)c2C)CS1	< 0.16 µM
COc1ccc(C2CC(c3c(-c4ccccc4)c4cc(Cl)ccc4[nH]c3=O)=NN2S(C)(=O)=O)cc1OC (stereo not drawn)	8.04 µM (inactive)
O/N=C(\c1ccc(Cl)cc1Cl)c1ncc(C(F)(F)F)cc1Cl	2.2 µM (inactive)
COc1ccc(CC2(CO)CCN(CC3=Cc4cc(Cl)ccc4OC3)CC2)cc1	0.87 µM (inactive)
CCSc1nc2ccccc2n1C(=O)/C=C/c1ccc(OC)c(OC)c1	4.97 µM
COc1ccc(/C=N\NC(=O)COc2ccc(C(C)(C)C)cc2)cc1Cn1nc(C)cc1C	2.99 µM
Cc1ccc(-c2ccc(/C=C(\C#N)C(=O)Nc3cc(C)nn3-c3ccccc3)o2)cc1	6.7 µM (inactive)
